Tests used:
p38 MAP kinase = biological target: T1, p38 MAP kinase (Homo sapiens, UniProt Q16539); test: p38 (MAP) kinase in vitro assay (transfer of γ-33P from ATP to Myelin Basic Protein); assay type: biochemical; conditions: phosphorylated recombinant p38 MAP kinase, MBP substrate, γ-33P-ATP, 30° C.
T1 construct: made in house; host or cells: E. coli (co-expressed with SEK-1 and MEKK)
Procedure: This example illustrates a p38 (MAP) kinase in vitro assay useful for evaluating the compounds of the invention.
The p38 MAP kinase inhibitory activity of compounds of this invention in vitro was determined by measuring the transfer of the γ-phosphate from γ-^33P-ATP by p-38 kinase to Myelin Basic Protein (MBP), using a minor modification of the method described in Ahn, et al., J. Biol. Chem. 266:4220-4227 (1991).
The phosphorylated form of the recombinant p38 MAP kinase was co-expressed with SEK-1 and MEKK in E. Coli (see, Khokhlatchev, et al., J. Biol. Chem. 272:11057-11062 (1997)) and then purified by affinity chromatography using a Nickel column.
The phosphorylated p38 MAP kinase was diluted in kinase buffer (20 mM 3-(N-morpholino)propanesulfonic acid, pH 7.2, 25 mM β-glycerol phosphate, 5 mM ethylene glycol-bis(beta-aminoethyl ether)-N,N,N′,N′-tetraacetic acid, 1 mM sodium ortho-vanadate, 1 mM dithiothreitol, 40 mM magnesium chloride). Test compound dissolved in DMSO or only DMSO (control) was added and the samples were incubated for 10 min at 30° C. The kinase reaction was initiated by the addition of a substrate cocktail containing MBP and γ-^33P-ATP. […] The phosphorylated MBP was then separated from the residual γ-^33P-ATP using a phosphocellulose membrane (Millipore, Bedford, Mass.) and quantitated using a scintillation counter (Packard, Meriden, Conn.).

T1 sequence (Q16539 whole entry): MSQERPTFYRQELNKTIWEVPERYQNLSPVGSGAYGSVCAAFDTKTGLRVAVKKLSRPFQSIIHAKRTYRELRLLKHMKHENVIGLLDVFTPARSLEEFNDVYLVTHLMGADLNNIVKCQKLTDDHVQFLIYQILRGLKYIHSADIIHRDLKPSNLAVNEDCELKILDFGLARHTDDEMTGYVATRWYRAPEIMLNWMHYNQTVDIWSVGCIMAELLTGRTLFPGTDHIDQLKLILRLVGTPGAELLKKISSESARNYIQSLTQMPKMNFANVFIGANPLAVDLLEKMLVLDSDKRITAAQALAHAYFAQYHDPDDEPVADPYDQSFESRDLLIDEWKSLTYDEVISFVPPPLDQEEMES

In the case of `O=S(=O)(Nc1ccc2c(-c3ccccc3Cl)n[nH]c2c1)c1cccc(Cl)c1F` [Compound 46, 3-Chloro-N-[3-(2-chloro-phenyl)-1H-indazol-6-yl]-2-fluoro-benzenesulfonamide], the IC50 (p38 MAP kinase) is reported as ~20 nM.
`O=S(=O)(Nc1ccc2c(-c3ccccc3Cl)n[nH]c2c1)c1cccc(Cl)c1` [Compound 12, 3-Chloro-N-[3-(2-chloro-phenyl)-1H-indazol-6-yl]-benzenesulfonamide] showed a melting point of 187 to 189 °C.

Source: patent US7517901B2, “p38 MAP kinase inhibitors and methods for using the same” (Roche Palo Alto LLC, priority 2005, dated 2009)
